This note sets out measurements from patent US12152038B2, “Vasopressin receptor antagonists and products and methods related thereto” (Neumora Therapeutics, Inc., priority 2017, dated 2024).

For data set [1], the target named is T1, human Arginine Vasopressin Receptor 1a (AVPR1a) (Homo sapiens, UniProt P37288).
T1 construct: expressed in transfected cells; host or cells: CHO (CHO-AVPR1a, kept under G418 selection)
The data set is described as follows: Vasopressin V1a receptor antagonist assay (FLIPR calcium, CHO-AVPR1a cells). The data set is classed as cell-based. Put shortly: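 CHO cells expressing human AVPR1a were loaded with Calcium-6 dye and preincubated with compound for 15 min at 37° C. Cells were then challenged with AVP at its daily-determined EC80, and FLIPR fluorescence was read. Compounds were tested in duplicate as 10-point 1:3 dilutions from a top final concentration of 3 μM.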

Data set [2] concerns the target T2, MDR1 (P-glycoprotein) (Homo sapiens, UniProt P08183).
T2 construct: host or cells: MDCK (MDR1-MDCK; wild-type MDCK as comparator)
The data set can be described thus: MDR1-MDCK permeability and efflux assay (Papp, efflux ratio, effective efflux ratio). The data set is classed as in vitro ADME. As to conditions: dog; for Papp A→B at 1 h, 10 μM: pH 7.4, read-out: Papp AB MDR1. The procedure: (§1) The MDR1-MDCK effective efflux assay was performed as described in the BioFocus Standard Operating Procedure, ADME-SOP-56. Both wild-type (WT) and MDR1-MDCK cells (Solvo Biotechnology) were seeded onto 24-well Transwell plates at 2.35×10^5 cells per well and used in confluent monolayers after a 3 day culture at 37° C. under 5% CO2. For both cell types, test and control compounds (propranolol, vinblastine) were added (10 μM, 0.1% DMSO final, n=2) to donor compartments of the Transwell plate assembly in assay buffer (Hanks balanced salt solution supplemented with 25 mM HEPES, adjusted to pH 7.4) for both apical to basolateral (A>B) and basolateral to apical (B>A) measurements. Incubations were performed at 37° C., with samples removed from both donor and acceptor chambers at T=0 and 1 hour and compound analysed by mass spectrometry (LC-MS/MS) including an analytical internal standard.
(§2) Apparent permeability (Papp) values were determined from the relationship: Papp=[CompoundAcceptor T=end]×V Acceptor/([Compound Donor T=0]×V Donor)/incubation time×V Donor/Area×60×10^−6 cm/s
(§3) In this equation, V is the volume of each Transwell compartment (apical 125 μL, basolateral 600 μL), and concentrations are the relative MS responses for compound (normalized to internal standard) in the donor chamber before incubation and acceptor chamber at the end of the incubation, and Area is the area of cells exposed for drug transfer (0.33 cm^2).
(§4) Efflux ratios (Papp B>A/Papp A>B) were calculated for each compound from the mean Papp values in each direction for both wild-type and MDR1-MDCK cells.
(§5) In order to confirm the involvement of MDR1 in any efflux seen, an “effective efflux ratio” (EER) was calculated by comparing compound efflux ratios (ER) in the two cell types by the following equation: EER=ER(MDR1-MDCK)/ER(wild-type MDCK)
(§6) This ratio illustrates the effect of the over-expressed MDR1 normalised for the background movement of compound through the wild-type cells.
(§7) Lucifer Yellow (LY) was added to the apical buffer in all wells to assess viability of the cell layer. […] Recoveries<50% indicates compound solubility, stability or binding issues, thereby reducing the reliability of a result.
(§8) The inherent ability of a potential drug molecule to penetrate the blood brain barrier and avoid efflux by transporters expressed in the brain, can be roughly correlated with the Papp(A-B) and the efflux ratio (as defined above), respectively. A potential drug molecule with an apparent permeability<7 (10^−6 cm/sec) has low permeability (+), >7 (10^−6 cm/sec) but <10 (10^−6 cm/sec) has moderate permeability (++), >10 (10^−6 cm/sec) but <20 (10^−6 cm/sec) has good permeability (+++), and >20 (10^−6 cm/sec) is highly permeable (++++). High permeability in the WT and MDCK II cell permeability assay increases the probability of blood brain barrier penetration and access to the CNS. A potential drug molecule in the above assay system with an efflux ratio or effective efflux ratio of <1 has low probability of being an efflux substrate (++++), >1 but <2 has moderate probability of being an efflux substrate (+++), >2 but <3 has has an increased probability of being an efflux substrate (++), and >3 has a high probability of being an efflux substrate (+). If a potential drug molecule is an efflux substrate, the molecule will have a low probability of reaching exposures in the brain (site of action) that will result in efficacious levels of receptor occupancy.

Data set [3] is described as follows: Wild-type MDCK permeability and efflux assay (Papp, efflux ratio). As to conditions: dog, pH 7.4, wild-type MDCK cells; for efflux ratio at 1 h, 10 μM: Papp B>A/Papp A>B, read-out: ER WT (Efflux Ratio). The data set is classed as in vitro ADME. The procedure:
as §1, §2, §3, §4, §5, §6, §7, §8

For data set [4], the target named is T3, human Arginine Vasopressin Receptor 1b (AVPR1b) (Homo sapiens, UniProt P47901).
T3 construct: expressed in transfected cells; host or cells: CHO (CHO-AVPR1b, kept under G418 selection)
T3 sequence (P47901 1-424): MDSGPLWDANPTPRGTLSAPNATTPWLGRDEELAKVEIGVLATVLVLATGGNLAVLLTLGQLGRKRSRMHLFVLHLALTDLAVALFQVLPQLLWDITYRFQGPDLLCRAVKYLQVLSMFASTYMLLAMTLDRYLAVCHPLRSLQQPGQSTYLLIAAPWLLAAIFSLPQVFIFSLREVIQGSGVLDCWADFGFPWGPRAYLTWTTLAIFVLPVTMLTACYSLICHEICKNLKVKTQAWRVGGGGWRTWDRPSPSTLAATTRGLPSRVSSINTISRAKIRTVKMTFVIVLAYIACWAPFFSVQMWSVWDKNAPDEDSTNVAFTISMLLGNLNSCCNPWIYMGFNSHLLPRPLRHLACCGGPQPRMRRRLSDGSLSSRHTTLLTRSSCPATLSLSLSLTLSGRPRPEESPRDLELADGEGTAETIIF
The data set can be described thus: Vasopressin V1b receptor antagonist assay (FLIPR calcium, CHO-AVPR1b cells). Type of data set: cell-based. The procedure:
The purpose of the assay was to determine the inhibitory effect of synthesized compounds on the Vasopressin V1b receptor. The assay was performed in Chinese Hamster Ovary (CHO) cells expressing the human Arginine Vasopressin Receptor 1b (AVPR1b). Arginine Vasopressin (AVP) evokes an increase in intracellular calcium in CHO-AVPR1b cells which is measured in a fluorescence assay on the FLIPR^TETRA using calcium sensitive dyes. Test compounds were assessed for their ability to affect the magnitude of the response to AVP, with antagonists showing a concentration-dependent reduction in the AVP-mediated fluorescence.
CHO-AVPR1b cells were maintained in routine culture in T175 Flasks at 37° C., 5% CO2. The growth medium consisted of Ham's F12 media supplemented with 10% v/v fetal bovine serum, 1× non-essential amino acids, and 0.4 mg/ml Geneticin G418.
Cells were harvested from T175 flasks when they were 80-90% confluent by first washing the cell monolayer with PBS and then dissociated using trypsin 0.05%/EDTA (3 mL for a T175 Flask). The flasks were incubated at room temperature until the cells detached. To the cell suspension, 10 ml of growth media was added and the cell density determined using the Vi-Cell automated cell counter. The cells were spun at 1000 rpm for 3 minutes, then the supernatant was carefully removed and discarded. The cell pellet was re-suspended at 6.0e^5 cells/ml in growth media. 25 μL of cells in growth media was dispensed into each well (15,000 cells per well) of a poly-D-lysine coated black, clear bottomed, 384-well plate. The plates were incubated at 37° C., 5% CO2 overnight.
At the start of each assay day, the potency of AVP was assessed and an EC80 concentration determined for subsequent compound profiling. Assays were performed using a two-step addition protocol on the FLIPR^TETRA; first addition of 5 μl of control or test compound at 10× final in assay buffer with 15 min incubation at 37° C., 5% CO2 followed by 10 μl of AVP at 6× final concentration in assay buffer. Changes in fluorescence were monitored for 3 min after both additions on the FLIPR^TETRA using 470-495 nm excitation and 515-575 nm emission wavelengths. The assay buffer consisted of HBSS (+Ca/+Mg) supplemented with 20 mM HEPES, and for the preparation of the AVP agonist only, 0.1% w/v bovine serum albumin. The assay was initiated by the removal of growth media from the cells and replacement with 45 μl of Calcium-6 dye (Molecular Devices) prepared at 1× in assay buffer. Cells were loaded with dye for 60-90 min at 37° C., 5% CO2 before initiation of the FLIPR^TETRA protocol. […] For compound profiling, test compounds were first serially diluted in DMSO (10-point curve, 1:3 dilutions) then diluted 33.3-fold in assay buffer prior to addition to the dye loaded cells on the FLIPR^TETRA. At the end of the incubation period 10 μl of AVP in assay buffer containing 0.1% BSA was added at the previously determined EC80 concentration.
In-plate controls for the assay included a Nelivaptan concentration-response curve as the reference V1b antagonist and an AVP concentration-response curve to confirm the reproducibility of the EC80 used for the compound challenge.

Setting [5] is: MDCK-MDR1, pH 7.4, ER(MDR1-MDCK)/ER(wild-type MDCK), read-out: EER (Effective Efflux Ratio).
The mark [6] stands for this setting: MDCK-MDR1, pH 7.4, Papp B>A/Papp A>B, MDR1-MDCK cells, read-out: ER MDR1 (Efflux Ratio).

Where two headings read alike, the source gives them in different places.

T1 sequence (P37288 whole entry): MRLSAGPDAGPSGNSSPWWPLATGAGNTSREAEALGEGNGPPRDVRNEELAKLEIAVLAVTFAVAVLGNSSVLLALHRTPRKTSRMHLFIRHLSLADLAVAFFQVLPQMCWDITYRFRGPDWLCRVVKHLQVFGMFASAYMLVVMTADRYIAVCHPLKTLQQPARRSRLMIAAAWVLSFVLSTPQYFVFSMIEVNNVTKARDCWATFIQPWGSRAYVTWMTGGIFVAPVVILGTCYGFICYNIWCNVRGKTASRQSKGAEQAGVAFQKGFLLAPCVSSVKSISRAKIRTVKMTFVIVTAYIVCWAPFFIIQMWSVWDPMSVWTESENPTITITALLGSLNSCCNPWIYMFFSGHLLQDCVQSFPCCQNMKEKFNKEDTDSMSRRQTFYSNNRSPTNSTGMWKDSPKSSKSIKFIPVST
T2 sequence (P08183 whole entry): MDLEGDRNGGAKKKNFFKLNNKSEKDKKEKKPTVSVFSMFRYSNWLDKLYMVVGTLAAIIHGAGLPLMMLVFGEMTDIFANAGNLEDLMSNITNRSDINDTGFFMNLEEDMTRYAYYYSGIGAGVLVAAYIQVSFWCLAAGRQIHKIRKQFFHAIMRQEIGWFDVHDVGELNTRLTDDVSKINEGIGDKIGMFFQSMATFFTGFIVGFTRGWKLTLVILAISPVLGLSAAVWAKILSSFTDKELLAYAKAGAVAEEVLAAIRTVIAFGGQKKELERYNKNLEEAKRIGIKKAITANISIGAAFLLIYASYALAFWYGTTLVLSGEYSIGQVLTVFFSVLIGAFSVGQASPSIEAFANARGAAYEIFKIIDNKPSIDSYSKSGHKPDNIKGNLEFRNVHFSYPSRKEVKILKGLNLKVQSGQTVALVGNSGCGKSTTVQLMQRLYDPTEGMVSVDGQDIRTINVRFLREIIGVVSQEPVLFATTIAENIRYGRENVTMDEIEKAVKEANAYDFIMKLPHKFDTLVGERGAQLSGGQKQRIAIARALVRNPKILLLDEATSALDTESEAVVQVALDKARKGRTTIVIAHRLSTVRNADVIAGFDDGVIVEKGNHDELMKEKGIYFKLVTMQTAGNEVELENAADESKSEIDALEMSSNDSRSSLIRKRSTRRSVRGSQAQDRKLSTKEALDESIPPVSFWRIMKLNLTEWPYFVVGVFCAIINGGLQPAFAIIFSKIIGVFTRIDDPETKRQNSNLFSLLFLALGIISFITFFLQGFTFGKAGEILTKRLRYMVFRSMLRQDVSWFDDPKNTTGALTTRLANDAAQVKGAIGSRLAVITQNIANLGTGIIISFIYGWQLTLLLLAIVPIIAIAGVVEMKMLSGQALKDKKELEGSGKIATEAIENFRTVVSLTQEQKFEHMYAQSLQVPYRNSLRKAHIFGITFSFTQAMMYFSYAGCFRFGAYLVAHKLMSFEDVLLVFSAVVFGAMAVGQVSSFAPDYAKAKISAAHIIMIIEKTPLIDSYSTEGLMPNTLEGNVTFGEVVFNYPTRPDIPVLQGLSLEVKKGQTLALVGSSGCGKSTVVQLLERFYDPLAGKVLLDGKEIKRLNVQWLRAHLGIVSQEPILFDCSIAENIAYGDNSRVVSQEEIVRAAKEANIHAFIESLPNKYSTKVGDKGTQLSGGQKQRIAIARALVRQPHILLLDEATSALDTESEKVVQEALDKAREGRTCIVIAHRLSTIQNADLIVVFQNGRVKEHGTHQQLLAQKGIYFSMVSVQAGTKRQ

Turning to `Cc1nc(N2CC3(CN(C(=O)N4c5ccc(Cl)cc5OCC4C)C3)C2)ncc1F` (single isomer, unassigned) [20-7-A], the half-inhibitory concentration (IC50) in data set [1] was at least 1000 nM. In addition, the efflux ratio at 1 h, 10 μM in data set [2] (setting [5]), in data set [2] (setting [6]) and in data set [3] was under 1 each time. The Papp A→B at 1 h, 10 μM in data set [2] (MDR1-MDCK cells) and in data set [3] was over 20 ×10⁻⁶ cm/s each time.
As to `CC1COc2cc(F)ccc2N1C(=O)N1CC2(C1)CN(c1ccc(F)cn1)C2` (single isomer, unassigned) [12-1-A], the IC50 in data set [1] was at least 1000 nM. Moreover, the efflux ratio at 1 h, 10 μM in data set [2] (setting [5]) is 1 to 2; in data set [2] (setting [6]), under 1; in data set [3] it was under 1. The Papp A→B at 1 h, 10 μM in data set [2] (MDR1-MDCK cells) and in data set [3] was over 20 ×10⁻⁶ cm/s each time.
As for `O=C(N1CC2(C1)CN(c1cnccn1)C2)N1CCC(O)c2cc(Cl)ccc21` (single isomer, unassigned) [13-3-B], the half-maximal inhibitory concentration (IC50) in data set [1] is under 100 nM. Further, the figures for the efflux ratio at 1 h, 10 μM in data set [2] (setting [5]), in data set [2] (setting [6]) and in data set [3] were over 3, over 3 and 1 to 2, respectively. The Papp A→B at 1 h, 10 μM in data set [2] (MDR1-MDCK cells) and in data set [3] was over 20 ×10⁻⁶ cm/s each time.
As for `O=C(N1CC2(C1)CN(c1ncccc1F)C2)N1CCOc2cc(Cl)ccc21` [1-1, (7-chloro-2,3-dihydro-4H-benzo[b][1,4]oxazin-4-yl)(6-(3-fluoropyridin-2-yl)-2,6-diazaspiro[3.3]heptan-2-yl)methanone], the half-inhibitory concentration (IC50) in data set [1] was under 100 nM; in data set [4] it was at least 1000 nM.
In the case of `CC1COc2cc(F)ccc2N1C(=O)N1CC2(C1)CN(c1cc(C#N)ccn1)C2` (centres unmarked) [20-3], the 50% inhibitory concentration (IC50) in data set [1] is under 100 nM. Further, the efflux ratio at 1 h, 10 μM was under 1 in data set [2] (setting [5]), 1 to 2 in data set [2] (setting [6]) and 1 to 2 in data set [3]. The Papp A→B at 1 h, 10 μM in data set [2] (MDR1-MDCK cells) and in data set [3] was over 20 ×10⁻⁶ cm/s throughout.
On to `CC1COc2cc(Cl)ccc2N1C(=O)N1CC2(C1)CN(c1cc(C#N)ccn1)C2` (single isomer, unassigned) [20-6-A], for which the IC50 in data set [1] is at least 1000 nM. Moreover, the efflux ratio at 1 h, 10 μM in data set [2] (setting [5]) is 1 to 2; in data set [2] (setting [6]), under 1; in data set [3], under 1. For the same compound, the Papp A→B at 1 h, 10 μM in data set [2] (MDR1-MDCK cells) and in data set [3] was over 20 ×10⁻⁶ cm/s in each case.
